EP2915814A2, “Crystalline salts of sitagliptin” (priority 2008, dated 2010)
Structures can show the parent of a compound that is named as a salt. Where two headings read alike, the source gives them in different places. Marks after values point to notes of the source that are not given here.

How the values were obtained:
[1] = Dissolution of salts (done on 1 capsule each); assay type: physicochemical; settings: for Dissolution in capsule in acetate buffer pH 4.5 medium at 50 rpm at 10 min (% release as free base) / Dissolution in capsule in acetate buffer pH 4.5 medium at 50 rpm at 30 min (% release as free base): acetate buffer pH 4.5, 50 rpm; for Dissolution in capsule in phosphate buffer pH 7.4 medium at 50 rpm at 10 min (% release as free base) / Dissolution in capsule in phosphate buffer pH 7.4 medium at 50 rpm at 30 min (% release as free base): phosphate buffer pH 7.4, 50 rpm
Text: Table 28: Dissolution results of salts (Done on 1 capsule each)

[2] = Hygroscopicity studies (water content after storage at 43 %, 75 % and 93 % relative humidity); assay type: physicochemical; settings: for change during the hygroscopicity studies: 43 %, 75 % and 93 % relative humidity, confirmed by DSC of samples kept at 93 % relative humidity for 2 weeks; for Initial water content: initial sample; for Hygroscopicity 2 weeks 43 % rh: 2 weeks at 43 % rh; for Hygroscopicity 2 weeks 43 % rh / Hygroscopicity 2 weeks 75 % rh / Hygroscopicity 2 weeks 93 % rh: % Equilibrium moisture content, ss = semi solid state of sample, β = solid first changed into liquid and solidified again; for Hygroscopicity 2 weeks 75 % rh: 2 weeks at 75 % rh; for Hygroscopicity 2 weeks 93 % rh: 2 weeks at 93 % rh
Text: The salts of the present invention and the free base were studied under three different humidity conditions (43 % relative humidity, 75 % relative humidity, and 93 % relative humidity).

[3] = Stability studies (storage at 60 °C in closed bottles or at 40 °C / 75 % RH in an open bottle; related substances by HPLC); settings: for Initial Related Substances: before storage; for Related Substances 2 W 40°C/75 % RH open / Related Substances 2 W 60°C closed: 2 weeks, 20160 min; for Related Substances 4 w 40°C/75 % RH closed / Related Substances 4 w 40°C/75 % RH open / Related Substances 4 w 60°C Closed bottle: 4 weeks, 40320 min; for Related Substances 12 weeks 40°C/75 % RH closed bottle / Related Substances 12 weeks 40°C/75 % RH open bottle: 120960 min
[4] = solid; for Related Substances 4 w 40°C/75 % RH closed / Related Substances 4 w 40°C/75 % RH open / Related Substances 4 w 60°C Closed bottle: 672 h; for Related Substances 12 weeks 40°C/75 % RH closed bottle / Related Substances 12 weeks 40°C/75 % RH open bottle: 2016 h; for Related Substances 2 W 40°C/75 % RH open / Related Substances 2 W 60°C closed: 336 h; for Related Substances 2 W 60°C closed / Related Substances 4 w 60°C Closed bottle: closed bottle
[5] = Evaluation of sitagliptin salts for processability; settings: for Appearance: powder
Text: Table 29: Evaluation of different Sitagliptin salts for processability

[6] = Solubility in water / aqueous solution; assay type: physicochemical; settings: compared to other known salts of sitagliptin
pH of aqueous solution = assay type: physicochemical; settings: 2 % aqueous solution
[7] = closed bottle, two weeks at 60 °C
[8] = closed bottle, four weeks at 60 °C

## N[C@@H](CC(=O)N1CCn2c(nnc2C(F)(F)F)C1)Cc1cc(F)c(F)cc1F [Phosphate H2O Ref]
[1]
  Dissolution in capsule in acetate buffer pH 4.5 medium at 50 rpm at 10 min (% release as free base): 48.08%
  Dissolution in capsule in acetate buffer pH 4.5 medium at 50 rpm at 30 min (% release as free base): 98.48%
  Dissolution in capsule in pH 6.8 buffer at 50 rpm at 10 min (% release as free base): 86.65%
  Dissolution in capsule in pH 6.8 buffer at 50 rpm at 30 min (% Release as free base): 91.12%
  Dissolution in capsule in phosphate buffer pH 7.4 medium at 50 rpm at 10 min (% release as free base): 80.81%
  Dissolution in capsule in phosphate buffer pH 7.4 medium at 50 rpm at 30 min (% release as free base): 99.18%
  Dissolution in capsule in water medium at 50 rpm at 10 min (% release as free base): 46.63%
  Dissolution in capsule in water medium at 50 rpm at 30 min (% release as free base): 96.30%

## Sitagliptin Malate
[1]
  Dissolution in capsule in pH 6.8 buffer at 50 rpm at 10 min (% release as free base): 84.72%
  Dissolution in capsule in pH 6.8 buffer at 50 rpm at 30 min (% Release as free base): 90.94%
  Dissolution in capsule in water medium at 50 rpm at 10 min (% release as free base): 90.22%
  Dissolution in capsule in water medium at 50 rpm at 30 min (% release as free base): 98.89%
[2]
  change during the hygroscopicity studies: did not show much change

## Sitagliptin Fumarate Form I [D:Fumarate I]
[3]
  Initial Related Substances: 0%
[2]; 2 weeks 43 % rh
  Hygroscopicity (water content): 1.058%
[2]; 2 weeks 75 % rh
  Hygroscopicity (water content): 1.078%
[2]; 2 weeks 93 % rh
  Hygroscopicity (water content): 1.168%
[2]
  change during the hygroscopicity studies: did not show much change
[2]; before humidity storage
  Initial water content: 0.89%
[4]
  Related Substances 4 w 40°C/75 % RH closed: 0.07%
  Related Substances 12 weeks 40°C/75 % RH closed bottle: 0.13%
  Related Substances 2 W 40°C/75 % RH open: 0.01%
  Related Substances 4 w 40°C/75 % RH open: 0.06%
  Related Substances 12 weeks 40°C/75 % RH open bottle: 0.11%
  Related Substances 2 W 60°C closed: 0.01%
  Related Substances 4 w 60°C Closed bottle: 0.03%

## N[C@@H](CC(=O)N1CCn2c(nnc2C(F)(F)F)C1)Cc1cc(F)c(F)cc1F [O: Sulfate II]
[3]
  Related Substances 2 W 40°C/75 % RH open: 0.23%
  Related Substances 2 W 60°C closed: 0.20%
  Related Substances 4 w 40°C/75 % RH closed: 0.24%
  Related Substances 4 w 40°C/75 % RH open: 0.36%
  Initial Related Substances: 0.20%
[3]; closed bottle
  Related Substances 4 w 60°C Closed bottle: 0.31%
  Related Substances 12 weeks 40°C/75 % RH closed bottle: 0.25%
[3]; open bottle
  Related Substances 12 weeks 40°C/75 % RH open bottle: 0.46%
[2]
  Hygroscopicity 2 weeks 43 % rh: 2.59%
  Hygroscopicity 2 weeks 75 % rh: 7.1%
  Hygroscopicity 2 weeks 93 % rh: 7.33%
[2]; before storage
  Initial water content: 1.88%
[5]
  Flowability: Good
  Poured density, m/V0: 0.483 g/ml
  Sticking tendency: Very low
  Tapped density, m/V1250: 0.508 g/mL
  Apparent Volume V0: 40 mL
  Apparent Volume V10: 40 mL
  Apparent Volume V500: 38 mL
  Apparent Volume V1250: 38 mL
  Appearance: White to off-white powder with big, coarse and hard particles.

## N[C@@H](CC(=O)N1CCn2c(nnc2C(F)(F)F)C1)Cc1cc(F)c(F)cc1F [M: Phosphate]
[2]
  Hygroscopicity 2 weeks 43 % rh: 3.69%
  Hygroscopicity 2 weeks 75 % rh: 3.67%
  Hygroscopicity 2 weeks 93 % rh: 3.73%
[2]; before storage
  Initial water content: 3.59%
[5]
  Flowability: Good
  Poured density, m/V0: 0.52 g/ml
  Sticking tendency: None
  Tapped density, m/V1250: 0.57 g/mL
  Apparent Volume V0: 190 mL
  Apparent Volume V10: 185 mL
  Apparent Volume V500: 175 mL
  Apparent Volume V1250: 174 mL
  Appearance: White to off-white powder, fine powder, few agglomerates.

## Sitagliptin succinate Form I [F: Succinate I]
[3]
  Initial Related Substances: 0.14%
[2]; 2 weeks 43 % rh
  Hygroscopicity (water content): 1.36%
[2]; 2 weeks 75 % rh
  Hygroscopicity (water content): 1.78%
[2]; 2 weeks 93 % rh
  Hygroscopicity (water content): 19.58** %
[2]; before humidity storage
  Initial water content: 0.90%
[4]
  Related Substances 4 w 40°C/75 % RH closed: 0.29%
  Related Substances 12 weeks 40°C/75 % RH closed bottle: 0.23%
  Related Substances 2 W 40°C/75 % RH open: 0.13%
  Related Substances 4 w 40°C/75 % RH open: 0.25%
  Related Substances 12 weeks 40°C/75 % RH open bottle: 0.16%
  Related Substances 2 W 60°C closed: 0.30%
  Related Substances 4 w 60°C Closed bottle: 0.58%

## N[C@@H](CC(=O)N1CCn2c(nnc2C(F)(F)F)C1)Cc1cc(F)c(F)cc1F [sulfate (non solvated), Sitagliptin Sulfate Form II]
[3]; closed bottle, four weeks at 60 °C, listed as sitagliptin hemisulphate
  stability (degradation, related substances by HPLC): excellent stability
[3]; [7]
  stability (degradation, related substances by HPLC): stable
[2]; listed as sitagliptin sulfate (non solvated)
  change during the hygroscopicity studies: increase in water content corresponding to conversion of hemihydrate to dihydrate
[6]
  solubility in water: very high solubility in water

## N[C@@H](CC(=O)N1CCn2c(nnc2C(F)(F)F)C1)Cc1cc(F)c(F)cc1F [sitagliptin hydrochloride, Sitagliptin Hydrochloride Form II]
[3]; [8]
  stability (degradation, related substances by HPLC): excellent stability
[2]; prolonged storage at 93 % relative humidity
  hygroscopicity: not hygroscopic
pH of aqueous solution
  pH: 5.8 ± 0.1

## N[C@@H](CC(=O)N1CCn2c(nnc2C(F)(F)F)C1)Cc1cc(F)c(F)cc1F [C: Lactate, Sitagliptin Lactate]
[3]
  Related Substances 2 W 40°C/75 % RH open: 0.34%
  Related Substances 2 W 60°C closed: 0.43%
  Related Substances 4 w 40°C/75 % RH closed: 0.28%
  Related Substances 4 w 40°C/75 % RH open: 0.33%
  Initial Related Substances: 0.16%
[3]; closed bottle
  Related Substances 4 w 60°C Closed bottle: 0.49%
  Related Substances 12 weeks 40°C/75 % RH closed bottle: 0.56%
[3]; open bottle
  Related Substances 12 weeks 40°C/75 % RH open bottle: 0.59%
[3]; [8]
  stability (degradation, related substances by HPLC): showed a degradation
[3]; [7]
  stability (degradation, related substances by HPLC): degradation was observed
[3]; open bottle, twelve weeks at 40 °C and 75 % RH
  stability (degradation, related substances by HPLC): shows degradation
[2]; 2 weeks 43 % rh
  Hygroscopicity (water content): 0.54%
[2]; 2 weeks 75 % rh
  Hygroscopicity (water content): 0.5%
[2]; 2 weeks 93 % rh
  Hygroscopicity (water content): 28.77 * %
[2]; before humidity storage
  Initial water content: 0.51%

## N[C@@H](CC(=O)N1CCn2c(nnc2C(F)(F)F)C1)Cc1cc(F)c(F)cc1F [HCl II]
[1]
  Dissolution in capsule in acetate buffer pH 4.5 medium at 50 rpm at 10 min (% release as free base): 93.89%
  Dissolution in capsule in acetate buffer pH 4.5 medium at 50 rpm at 30 min (% release as free base): 100%
  Dissolution in capsule in pH 6.8 buffer at 50 rpm at 10 min (% release as free base): 90.13%
  Dissolution in capsule in pH 6.8 buffer at 50 rpm at 30 min (% Release as free base): 91.21%
  Dissolution in capsule in phosphate buffer pH 7.4 medium at 50 rpm at 10 min (% release as free base): 93.63%
  Dissolution in capsule in phosphate buffer pH 7.4 medium at 50 rpm at 30 min (% release as free base): 99.67%

## Amorphous Sitagliptin Citrate [citrate (amorphous)]
[1]
  Dissolution in capsule in pH 6.8 buffer at 50 rpm at 10 min (% release as free base): 62.4%
  Dissolution in capsule in pH 6.8 buffer at 50 rpm at 30 min (% Release as free base): 89.47%
  Dissolution in capsule in water medium at 50 rpm at 10 min (% release as free base): 75.89%
  Dissolution in capsule in water medium at 50 rpm at 30 min (% release as free base): 94.23%
[2]; two weeks storage at 93% relative humidity
  solid form conversion on humidity storage: partial conversion into the respective crystalline form
